Measured values as given in patent US20200121801A1, “DRUG DELIVERY CONJUGATES CONTAINING UNNATURAL AMINO ACIDS AND METHODS FOR USING” (priority 2012, published 2020).
Entries after “also recorded” stand apart in the source; their conditions may differ. Like-named read-outs stand apart in the source and are kept apart here.

How the values were obtained:
[1] = system: KB tumors; test: Inhibition of tumor growth, s.c. KB tumors in nu/nu mice; type: in vivo; design: key to In vivo activity (e): CR = complete response, where tumor volume, as defined herein, during the observation period was zero for all test animals in the group; details: for In vivo activity (e): subcutaneous KB tumor in nu/nu mice
Method: METHOD. Inhibition of Tumor Growth in Mice. […] For tumor cell inoculation, 1×10^6 M109 cells (a syngeneic lung carcinoma) in Balb/c strain, or 1×10^6 KB cells in nu/nu strain, in 100 μL are injected in the subcutis of the dorsal medial area (right axilla).
METHOD. Toxicity as Measured by Weight Loss. The percentage weight change of the test animals is determined on selected days post-tumor inoculation (PTI), and during dosing. The results are graphed.

[2] = Plasma stability / free drug release after s.c. dose (EC1496 vs EC0746); type: in vivo, rats
Method: METHOD. Human serum stability. Compounds described herein are tested in human serum for stability using conventional protocols and methods. Briefly, test compound is administered to the test animal, such as by subcutaneous injection. The plasma concentration of the conjugate, and optionally one or more metabolites, is monitored over time. The results are graphed to determine Cmax, Tmax, half-life, and AUC for the test compound and metabolites.
EXAMPLE. […] EC1495 and EC0746 (comparator compound) are each administered at 500 nmol/kg by subcutaneous injection. The plasma concentration of the conjugate and the metabolites (aminopterin and aminopterin hydrazide) are monitored over time. […] As also shown in the following table, free drug is released as the parent aminopterin and the hydrazide derivative (EC0470).

[3] = system: KB cells (FR+); type: cell-based, Human; details: for In vitro specificity (fold) (d): IC50 competed group vs non-competed group
Method: METHOD. Inhibition of Cellular DNA Synthesis. The compounds described herein are evaluated using an in vitro cytotoxicity assay that predicts the ability of the drug to inhibit the growth of folate receptor-positive cells, such as KB cells, RAW264.7 macrophages, and the like. It is to be understood that the choice of cell type can made on the basis of the susceptibility of those selected cells to the drug that forms the conjugate. The test compounds are comprised of folate linked to a respective chemotherapeutic drug, as prepared according to the processes described herein. The test cells are exposed to varying concentrations of folate-drug conjugate, and also in the absence or presence of at least a 100-fold excess of folic acid to assess activity as being specific to folate receptor mediation.
EXAMPLE. Conjugates of cytotoxic drugs described herein are active against KB cells. The activity is mediated by the folate receptor as indicated by competition experiments using co-administered folic acid. KB cells are exposed for up to 7 h at 37° C. to the indicated concentrations of folate-drug conjugate in the absence or presence of at least a 100-fold excess of folic acid. The cells are then rinsed once with fresh culture medium and incubated in fresh culture medium for 72 hours at 37° C. Cell viability was assessed using a ^3H-thymidine incorporation assay.
METHOD. In vitro activity against various cancer cell lines. IC50 values are generated for various cell lines. Cells are heavily seeded in 24-well Falcon plates and allowed to form nearly confluent monolayers overnight. Thirty minutes prior to the addition of the test compound, spent medium is aspirated from all wells and replaced with fresh folate-deficient RPMI medium (FFRPMI). A subset of wells are designated to receive media containing 100 μM folic acid. The cells in the designated wells are used to determine the targeting specificity. Without being bound by theory it is believed herein that the cytotoxic activity produced by test compounds in the presence of excess folic acid, i.e. where there is competition for FR binding, corresponds to the portion of the total activity that is unrelated to FR-specific delivery. Following one rinse with 1 mL of fresh FFRPMI containing 10% heat-inactivated fetal calf serum, each well receives 1 mL of medium containing increasing concentrations of test compound (4 wells per sample) in the presence or absence of 100 μM free folic acid as indicated. Treated cells are pulsed for 2 h at 37° C., rinsed 4 times with 0.5 mL of media, and then chased in 1 mL of fresh medium up to 70 h. Spent medium is aspirated from all wells and replaced with fresh medium containing 5 μCi/mL ^3H-thymidine. Following a further 2 h 37° C. incubation, cells are washed 3 times with 0.5 mL of PBS and then treated with 0.5 mL of ice-cold 5% trichloroacetic acid per well. After 15 min, the trichloroacetic acid is aspirated and the cell material solubilized by the addition of 0.5 mL of 0.25 N sodium hydroxide for 15 min. A 450 μL aliquot of each solubilized sample is transferred to a scintillation vial containing 3 mL of Ecolume scintillation cocktail and then counted in a liquid scintillation counter. Final results are expressed as the percentage of ^3H-thymidine incorporation relative to untreated controls.

[4] = biological target: T1, folate receptors (FRs) on KB cells (Homo sapiens, UniProt P15328); test: Relative affinity assay (3H-folic acid competition) on KB cells; type: binding; details: for Relative Affinity (a) compared to folic acid: folic acid = 1, in 10% serum/FDRPMI
T1 construct: FR-positive KB cells are heavily seeded into 24-well cell culture plates; endogenous in cells; host or cells: KB cells
Method: METHOD. Relative Affinity Assay. The affinity for folate receptors (FRs) relative to folate is determined according to a previously described method (Westerhof, G. R., J. H. Schornagel, et al. (1995) Mol. Pharm. 48: 459-471) with slight modification. Briefly, FR-positive KB cells are heavily seeded into 24-well cell culture plates and allowed to adhere to the plastic for 18 h. Spent incubation media is replaced in designated wells with folate-free RPMI (FFRPMI) supplemented with 100 nM ^3H-folic acid in the absence and presence of increasing concentrations of test article or folic acid. Cells are incubated for 60 min at 37° C. and then rinsed 3 times with PBS, pH 7.4. Five hundred microliters of 1% SDS in PBS, pH 7.4, is added per well. Cell lysates are then collected and added to individual vials containing 5 mL of scintillation cocktail, and then counted for radioactivity. Negative control tubes contain only the ^3H-folic acid in FFRPMI (no competitor). Positive control tubes contain a final concentration of 1 mM folic acid, and CPMs measured in these samples (representing non-specific binding of label) are subtracted from all samples.

[5] = Plasma clearance after s.c. administration; type: in vivo, Lewis rats; details: EC1669 500 nmol/kg s.c.
Method: METHOD. Plasma clearance. In vivo studies include a minimum of 3 test animals, such as rats, per time point. Illustratively, female Lewis rats with jugular vein catheters (Harlan, regular rodent diet) are given a single subcutaneous injection of test compound, such as EC1669 at 500 nmol/kg. Whole blood samples (300 μL) are collected at the following time points: 1 min, 10 min, 30 min, 1 h, 2 h, 3 h, 4 h, 8 h, and 12 h after injection. The blood samples are placed into anti-coagulant tubes containing 1.7 mg/mL of K3-EDTA and 0.35 mg/mL of N-maleoyl-beta-alanine (0.35 mg/mL) in a 0.15% acetic acid solution. Plasma samples are obtained by centrifugation for 3 min at ˜2,000 g and stored at −80° C. The amounts of test compound in the plasma and any metabolites, such as EC1669 and its two active metabolites aminopterin (AMT) and AMT hydrazide (EC0470), respectively, are quantified by LC-MS/MS.

[6] = IC50 for test compound when competed with excess folic acid, read-out: 50% competition (nM) (c)
[7] = as determined by thymidine incorporation, read-out: In vitro IC50 (nM) (b)

T1 sequence (P15328 25-234): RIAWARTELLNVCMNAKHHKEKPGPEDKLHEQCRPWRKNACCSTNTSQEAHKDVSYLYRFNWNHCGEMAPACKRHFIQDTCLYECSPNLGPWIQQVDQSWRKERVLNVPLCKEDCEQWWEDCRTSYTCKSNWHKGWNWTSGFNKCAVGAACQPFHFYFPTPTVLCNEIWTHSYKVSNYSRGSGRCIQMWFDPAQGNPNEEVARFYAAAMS

| Compound | In vivo activity (e) [1] | In vitro specificity (fold) (d) [3] | IC50 [3, 6] [nM] | IC50 [3, 7] [nM] | Relative Affinity (a) compared to folic acid [4] | further results |
| --- | --- | --- | --- | --- | --- | --- |
| CCCCOCN(C(=O)[C@@H](NC(=O)[C@H]1CCCCN1C)C(C)CC)[C@H](C[C@@H](OC(C)=O)c1nc(C(=O)N[C@@H](Cc2ccc(O)cc2)C[C@H](C)C(=O)NNC(=O)OCCSSC[C@@H](NC(=O)[C@H](CCC(=O)NC[C@H](O)[C@@H](O)[C@H](O)[C@H](O)CO)NC(=O)[C@@H](CCC(=O)O)NC(=O)[C@H](CCC(=O)NC[C@H](O)[C@@H](O)[C@H](O)[C@H](O)CO)NC(=O)[C@@H](CCC(=O)O)NC(=O)[C@H](CCC(=O)NC[C@H](O)[C@@H](O)[C@H](O)[C@H](O)CO)NC(=O)CC[C@@H](NC(=O)c2ccc(NCc3cnc4nc(N)[nH]c(=O)c4n3)cc2)C(=O)O)C(=O)O)cs1)C(C)C (some centres unmarked) [EC1663] |  |  |  |  |  | partial responses (test animals) ([1]; 0.5 μmol/kg i.v. TIW, 2 weeks): 4/4; whole animal toxicity ([1]; 0.5 μmol/kg i.v. TIW, 2 weeks): did not exhibit significant host animal toxicity; also recorded: whole animal toxicity was not observed |
| CCCC(=O)OCN(C(=O)[C@@H](NC(=O)[C@H]1CCCCN1C)C(C)CC)[C@H](C[C@H](OC(C)=O)c1nc(C(=O)N[C@H](Cc2ccc(O)cc2)C[C@H](C)C(=O)NNC(=O)OCCSSC[C@H](NC(=O)[C@H](CCC(=O)NC[C@H](O)[C@@H](O)[C@H](O)[C@H](O)CO)NC(=O)[C@H](CCC(=O)O)NC(=O)[C@H](CCC(=O)NC[C@H](O)[C@@H](O)[C@H](O)[C@H](O)CO)NC(=O)[C@H](CCC(=O)O)NC(=O)[C@H](CCC(=O)NC[C@H](O)[C@@H](O)[C@H](O)[C@H](O)CO)NC(=O)CC[C@H](NC(=O)c2ccc(NCc3cnc4nc(N)[nH]c(=O)c4n3)cc2)C(=O)O)C(=O)O)cs1)C(C)C (some centres unmarked) [EC0746, reference compound] |  |  |  |  |  | Free drug released (%): AMT ([2]; 500 nmol/kg s.c., plasma): 11.0%; Free drug released (%): AMT-hydrazide (EC0470) ([2]; 500 nmol/kg s.c., plasma): 7.4%; Free drug released (%): Total ([2]; 500 nmol/kg s.c., plasma): 18.4%; drug released relative to EC1496 ([2]; after a subcutaneous dose in rats): more than 2 fold |
| CCCC(=O)OCN(C(=O)[C@@H](NC(=O)[C@H]1CCCCN1C)C(C)CC)C(C[C@@H](OC(C)=O)c1nc(C(=O)N[C@@H](Cc2ccc(O)cc2)C[C@H](C)C(=O)NNC(=O)OCCSSC[C@@H](NC(=O)[C@@H](CC(=O)O)NC(=O)[C@H](CC(=O)O)NC(=O)[C@H](CCCNC(=N)N)NC(=O)[C@H](CC(=O)O)NC(=O)CC[C@H](NC(=O)c2ccc(NCc3cnc4nc(N)[nH]c(=O)c4n3)cc2)C(=O)O)C(=O)O)cs1)C(C)C (some centres unmarked) [EC1549] | CR | 78 | 350 | 4.5 | 0.90 |  |
| aminopterin hydrazide [EC0470, reference compound] |  |  |  |  |  | AUC of EC1669-derived metabolite [5]: 3.9 nmol·min/mL; elimination half-life of EC1669-derived metabolite [5]: 1.87 h; Cmax ([5]; plasma, read-out: Cmax of EC1669-derived metabolite): 21 nM |
| CCCC(=O)OCN(C(=O)[C@@H](NC(=O)[C@H]1CCCCN1C)C(C)CC)[C@H](C[C@@H](OC(C)=O)c1nc(C(=O)N[C@@H](Cc2ccc(O)cc2)C[C@H](C)C(=O)NNC(=O)OCCSSC[C@@H](NC(=O)[C@H](CC(=O)O)NC(=O)[C@H](CC(=O)O)NC(=O)[C@H](CCCNC(=N)N)NC(=O)[C@H](CC(=O)O)NC(=O)CC[C@H](NC(=O)c2ccc(NCc3cnc4nc(N)[nH]c(=O)c4n3)cc2)C(=O)O)C(=O)O)cs1)C(C)C (some centres unmarked) [EC1548] | CR | 78 | 350 | 4.4 | 0.23 |  |
| N=c1[nH]c(N)nc2ncc(CNc3ccc(C(=O)N[C@@H](CCC(=O)NNC(=O)OCCSSC[C@H](NC(=O)[C@H](CCC(=O)NC[C@H](O)[C@@H](O)[C@H](O)[C@H](O)CO)NC(=O)[C@H](CCC(=O)O)NC(=O)[C@H](CCC(=O)NC[C@H](O)[C@@H](O)[C@H](O)[C@H](O)CO)NC(=O)[C@H](CCC(=O)O)NC(=O)[C@H](CCC(=O)NC[C@H](O)[C@@H](O)[C@H](O)[C@H](O)CO)NC(=O)CC[C@H](NC(=O)c4ccc(NCc5cnc6nc(N)[nH]c(=O)c6n5)cc4)C(=O)O)C(=O)O)C(=O)O)cc3)nc12 [EC0531, reference compound] | CR | 237 |  |  |  |  |
| CN(Cc1cnc2nc(N)nc(N)c2n1)c1ccc(C(=O)N[C@@H](CCC(=O)O)C(=O)O)cc1 [methotrexate, reference compound] |  |  |  |  |  | binding to the cell surface FRs ([4]; in comparison to EC1669): poor binding |
| CCCC(=O)OCN(C(=O)[C@@H](NC(=O)[C@H]1CCCCN1C)C(C)CC)[C@H](C[C@@H](OC(C)=O)c1nc(C(=O)N[C@@H](Cc2ccc(O)cc2)C[C@H](C)C(=O)NNC(=O)OCCSSC[C@@H](NC(=O)[C@@H](CC(=O)O)NC(=O)[C@@H](CC(=O)O)NC(=O)[C@@H](CCCNC(=N)N)NC(=O)[C@@H](CC(=O)O)NC(=O)CC[C@@H](NC(=O)c2ccc(NCc3cnc4nc(N)[nH]c(=O)c4n3)cc2)C(=O)O)C(=O)O)cs1)C(C)C (some centres unmarked) [EC1299] | CR | 778 | 700 | 0.9 | 0.29 |  |
| CCCC(=O)OCN(C(=O)[C@@H](NC(=O)[C@H]1CCCCN1C)C(C)CC)[C@H](C[C@@H](OC(C)=O)c1nc(C(=O)N[C@@H](Cc2ccc(O)cc2)C[C@H](C)C(=O)NNC(=O)OCCSSC(C)(C)[C@@H](NC(=O)[C@@H](CC(=O)O)NC(=O)[C@@H](CC(=O)O)NC(=O)[C@@H](CCCNC(=N)N)NC(=O)[C@@H](CC(=O)O)NC(=O)CC[C@@H](NC(=O)c2ccc(NCc3cnc4nc(N)[nH]c(=O)c4n3)cc2)C(=O)O)C(=O)O)cs1)C(C)C (some centres unmarked) [EC1393] |  | 300 |  |  | 0.25 |  |
